Assay results from the supplement of paper PMC10627819.

What was measured:
Test in all cases: Bliss interaction score (quartile over a dose matrix) (fitness difference); higher = more antagonism (negative = synergy)
B. subtilis 168 = test system: B. subtilis 168
Outline: (§1)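 The Bliss score is observed fitness minus expected fitness, where the expected value is the product of single-drug fitness values inferred from combination data. Fitness is OD595 at entry into stationary phase normalised to the plate's robust no-drug mean and capped at 1. Scores are reported as quartiles spanning technical, biological and donor/recipient replicates.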

S. aureus DSM 20231 = test system: S. aureus DSM 20231
Outline: as §1

S. aureus Newman = test system: S. aureus Newman
Outline: as §1

S. pneumoniae D39V = test system: S. pneumoniae D39V
Outline: as §1
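Note: first quartile when negative (synergy) and third quartile when positive (antagonism).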

Compound | Bliss interaction score (B. subtilis 168) | Bliss interaction score (S. aureus DSM 20231) | Bliss interaction score (S. aureus Newman) | Bliss interaction score (S. pneumoniae D39V) | Bliss interaction score (B. subtilis 168; main component drawn) | Bliss interaction score (S. aureus DSM 20231; main component drawn) | Bliss interaction score (S. aureus Newman; main component drawn) | Bliss interaction score (S. pneumoniae D39V; main component drawn)
O=C(O)[C@H]1/C(=C/CO)O[C@@H]2CC(=O)N21 [Clavulanic] + CC[C@H]1OC(=O)[C@H](C)C(=O)[C@H](C)[C@@H](O[C@@H]2O[C@H](C)C[C@H](N(C)C)[C@H]2O)[C@](C)(OC)C[C@@H](C)C(=O)[C@H](C)[C@H]2N(CCCCn3cnc(-c4cccnc4)c3)C(=O)O[C@]12C [Telithromycin] | 0.0437 | -0.0742 | 0.122 | -0.0431 | – | – | – | –
CC1=C(C(=O)O)N2C(=O)[C@@H](NC(=O)[C@H](N)c3ccccc3)[C@H]2SC1 [Cephalexin] + CC(C1CCC(C(O1)OC2C(CC(C(C2O)OC3C(C(C(CO3)(C)O)NC)O)N)N)N)NC [Gentamicin] | – | – | – | – | -0.0985 | -0.0632 | -0.018 | -0.132
CNC(C)C1CCC(N)C(OC2C(N)CC(N)C(OC3OCC(C)(O)C(NC)C3O)C2O)O1 (stereo not given) [Gentamicin] + CN[C@H](CC(C)C)C(=O)N[C@H]1C(=O)N[C@@H](CC(N)=O)C(=O)N[C@H]2C(=O)N[C@H]3C(=O)N[C@H](C(=O)N[C@H](C(=O)O)c4cc(O)cc(O)c4-c4cc3ccc4O)[C@H](O[C@H]3C[C@](C)(N)[C@@H](O)[C@H](C)O3)c3ccc(c(Cl)c3)Oc3cc2cc(c3O[C@@H]2O[C@H](CO)[C@@H](O)[C@H](O)[C@H]2O[C@H]2C[C@](C)(NCc3ccc(-c4ccc(Cl)cc4)cc3)[C@@H](O)[C@H](C)O2)Oc2ccc(cc2Cl)[C@H]1O [Oritavancin] | – | – | – | – | 0.048 | -0.0507 | 0.0919 | 0.0748
CC1=C(C(=O)O)N2C(=O)[C@@H](NC(=O)[C@H](N)c3ccccc3)[C@H]2SC1 [Cephalexin] + N[C@@H]1CONC1=O [CycloserineD] | -0.0367 | 0.0763 | -0.0487 | -0.117 | – | – | – | –
CNC(C)C1CCC(N)C(OC2C(N)CC(N)C(OC3OCC(C)(O)C(NC)C3O)C2O)O1 (stereo not given) [Gentamicin] + CC1(C)S[C@@H]2[C@H](NC(=O)Cc3ccccc3)C(=O)N2[C@H]1C(=O)O [PenicillinG] | – | – | – | – | 0.0952 | 0.0582 | -0.0512 | 0.0914
CN(N=O)C(=O)N[C@@H](C=O)[C@@H](O)[C@H](O)[C@H](O)CO [Streptozotocin] + Oc1cc(Cl)ccc1Oc1ccc(Cl)cc1Cl [Triclosan] | 0.095 | 0.0542 | -0.0226 | -0.0506 | – | – | – | –
O=C(O)[C@H]1/C(=C/CO)O[C@@H]2CC(=O)N21 [Clavulanic] + CC1(C)S[C@@H]2[C@H](NC(=O)Cc3ccccc3)C(=O)N2[C@H]1C(=O)O [PenicillinG] | -0.351 | -0.147 | -0.128 | 0.0529 | – | – | – | –
CC1=C(C(=O)O)N2C(=O)[C@@H](NC(=O)[C@H](N)c3ccccc3)[C@H]2SC1 [Cephalexin] + CCC[C@@H]1C[C@@H](C(=O)N[C@@H]([C@H]2O[C@H](SC)[C@H](O)[C@@H](O)[C@H]2O)[C@H](C)Cl)N(C)C1 [Clindamycin] | -0.0509 | -0.0563 | 0.138 | 0.14 | – | – | – | –
CC[C@H]1OC(=O)[C@H](C)[C@@H](O[C@H]2C[C@@](C)(OC)[C@@H](O)[C@H](C)O2)[C@H](C)[C@@H](O[C@@H]2O[C@H](C)C[C@H](N(C)C)[C@H]2O)[C@](C)(O)C[C@@H](C)CN(C)[C@H](C)[C@@H](O)[C@]1(C)O [Azithromycin] + CN[C@H](CC(C)C)C(=O)N[C@H]1C(=O)N[C@@H](CC(N)=O)C(=O)N[C@H]2C(=O)N[C@H]3C(=O)N[C@H](C(=O)N[C@H](C(=O)O)c4cc(O)cc(O)c4-c4cc3ccc4O)[C@H](O[C@H]3C[C@](C)(N)[C@@H](O)[C@H](C)O3)c3ccc(c(Cl)c3)Oc3cc2cc(c3O[C@@H]2O[C@H](CO)[C@@H](O)[C@H](O)[C@H]2O[C@H]2C[C@](C)(NCc3ccc(-c4ccc(Cl)cc4)cc3)[C@@H](O)[C@H](C)O2)Oc2ccc(cc2Cl)[C@H]1O [Oritavancin] | 0.0325 | -0.0405 | -0.0766 | 0.0492 | – | – | – | –
CC[C@H]1OC(=O)[C@H](C)[C@@H](O[C@H]2C[C@@](C)(OC)[C@@H](O)[C@H](C)O2)[C@H](C)[C@@H](O[C@@H]2O[C@H](C)C[C@H](N(C)C)[C@H]2O)[C@](C)(O)C[C@@H](C)CN(C)[C@H](C)[C@@H](O)[C@]1(C)O [Azithromycin] + O=C(O)[C@H]1/C(=C/CO)O[C@@H]2CC(=O)N21 [Clavulanic] | 0.115 | -0.136 | 0.239 | -0.0573 | – | – | – | –
Cc1onc(-c2ccccc2)c1C(=O)N[C@@H]1C(=O)N2[C@@H]1SC(C)(C)[C@@H]2C(=O)O [Oxacillin] + CC[C@H]1OC(=O)[C@H](C)C(=O)[C@H](C)[C@@H](O[C@@H]2O[C@H](C)C[C@H](N(C)C)[C@H]2O)[C@](C)(OC)C[C@@H](C)C(=O)[C@H](C)[C@H]2N(CCCCn3cnc(-c4cccnc4)c3)C(=O)O[C@]12C [Telithromycin] | -0.0301 | 0.0397 | 0.0304 | 0.112 | – | – | – | –
Cc1onc(-c2ccccc2)c1C(=O)N[C@@H]1C(=O)N2[C@@H]1SC(C)(C)[C@@H]2C(=O)O [Oxacillin] + C/C(=C\C(=O)OCCCCCCCCC(=O)O)C[C@@H]1OC[C@H](C[C@@H]2O[C@H]2[C@@H](C)[C@H](C)O)[C@@H](O)[C@H]1O [Pseudomonic acid] | 0.0424 | 0.0247 | 0.0232 | 0.158 | – | – | – | –
CC[C@H]1OC(=O)[C@H](C)[C@@H](O[C@H]2C[C@@](C)(OC)[C@@H](O)[C@H](C)O2)[C@H](C)[C@@H](O[C@@H]2O[C@H](C)C[C@H](N(C)C)[C@H]2O)[C@](C)(O)C[C@@H](C)CN(C)[C@H](C)[C@@H](O)[C@]1(C)O [Azithromycin] + CC(=O)O[C@H]1C[C@@]2(C)[C@@H](C[C@@H](O)[C@H]3[C@@]4(C)CC[C@@H](O)[C@@H](C)[C@@H]4CC[C@@]32C)/C1=C(\CCC=C(C)C)C(=O)O [Fusidic acid] | -0.119 | -0.0342 | 0.0362 | -0.0761 | – | – | – | –
C[n+]1ccc(-c2cc[n+](C)cc2)cc1 [Paraquat] + C/C(=C\C(=O)OCCCCCCCCC(=O)O)C[C@@H]1OC[C@H](C[C@@H]2O[C@H]2[C@@H](C)[C@H](C)O)[C@@H](O)[C@H]1O [Pseudomonic acid] | 0.0715 | 0.0093 | 0.0152 | -0.0863 | – | – | – | –
O=C(O)[C@H]1/C(=C/CO)O[C@@H]2CC(=O)N21 [Clavulanic] + Clc1ccc(COC(Cn2ccnc2)c2ccc(Cl)cc2Cl)c(Cl)c1 [Miconazole] | 0.0639 | 0.101 | -0.0736 | 0.0698 | – | – | – | –
CC[C@H]1OC(=O)[C@H](C)[C@@H](O[C@H]2C[C@@](C)(OC)[C@@H](O)[C@H](C)O2)[C@H](C)[C@@H](O[C@@H]2O[C@H](C)C[C@H](N(C)C)[C@H]2O)[C@](C)(O)C[C@@H](C)CN(C)[C@H](C)[C@@H](O)[C@]1(C)O [Azithromycin] + CC1(C)S[C@@H]2[C@H](NC(=O)Cc3ccccc3)C(=O)N2[C@H]1C(=O)O [PenicillinG] | 0.0629 | -0.0514 | -0.087 | 0.0489 | – | – | – | –
CC1=C(C(=O)O)N2C(=O)[C@@H](NC(=O)[C@H](N)c3ccccc3)[C@H]2SC1 [Cephalexin] + CC[C@H]1OC(=O)[C@H](C)C(=O)[C@H](C)[C@@H](O[C@@H]2O[C@H](C)C[C@H](N(C)C)[C@H]2O)[C@](C)(OC)C[C@@H](C)C(=O)[C@H](C)[C@H]2N(CCCCn3cnc(-c4cccnc4)c3)C(=O)O[C@]12C [Telithromycin] | 0.0293 | 0.0639 | 0.0476 | 0.0359 | – | – | – | –
CC[C@H]1OC(=O)[C@H](C)C(=O)[C@H](C)[C@@H](O[C@@H]2O[C@H](C)C[C@H](N(C)C)[C@H]2O)[C@](C)(OC)C[C@@H](C)C(=O)[C@H](C)[C@H]2N(CCCCn3cnc(-c4cccnc4)c3)C(=O)O[C@]12C [Telithromycin] + CN(C)c1cc(NC(=O)CNC(C)(C)C)c(O)c2c1C[C@H]1C[C@H]3[C@H](N(C)C)C(O)=C(C(N)=O)C(=O)[C@@]3(O)C(O)=C1C2=O [Tigecycline] | 0.0616 | -0.0261 | 0.0378 | -0.107 | – | – | – | –
O=C(O)[C@H]1/C(=C/CO)O[C@@H]2CC(=O)N21 [Clavulanic] + CC1=C\[C@@H](O)CC(=O)Cc2nc(co2)C(=O)N2CCC=C2C(=O)O[C@H](C(C)C)[C@H](C)/C=C/C(=O)NC\C=C\1 [Virginiamycin M1] | 0.0376 | 0.0872 | -0.0599 | 0.0495 | – | – | – | –
O=C(O)[C@H]1/C(=C/CO)O[C@@H]2CC(=O)N21 [Clavulanic] + CCC(C)C1C(=O)NC(=C)C(=O)NC(C(=O)NC(CSCC(C(=O)N1)NC(=O)/C(=C/C)/NC(=O)C(C(C)CC)N)C(=O)NC2C(SCC(NC(=O)CNC(=O)C3CCCN3C2=O)C(=O)NC(CCCCN)C(=O)NC4C(SCC(NC(=O)CNC(=O)C(NC(=O)C(NC(=O)C(NC(=O)CNC4=O)C)CC(C)C)CCSC)C(=O)NC(CC(=O)N)C(=O)NC(CCSC)C(=O)NC(CCCCN)C(=O)NC5C(SCC6C(=O)NC(C(=O)NC(CSC(C(C(=O)N6)NC(=O)C(NC5=O)C)C)C(=O)NC(CO)C(=O)NC(C(C)CC)C(=O)NC(CC7=CN=CN7)C(=O)NC(C(C)C)C(=O)NC(=C)C(=O)NC(CCCCN)C(=O)O)CC8=CN=CN8)C)C)C)CC(C)C [Nisin] | – | – | – | – | -0.0543 | 0.105 | 0.255 | -0.0543
CC1=C(C(=O)O)N2C(=O)[C@@H](NC(=O)[C@H](N)c3ccccc3)[C@H]2SC1 [Cephalexin] + O=C(O)c1cn(C2CC2)c2cc(N3CCNCC3)c(F)cc2c1=O [Ciprofloxacin] | -0.084 | 0.0694 | 0.067 | -0.138 | – | – | – | –
O=C(O)[C@H]1/C(=C/CO)O[C@@H]2CC(=O)N21 [Clavulanic] + Oc1cc(Cl)ccc1Oc1ccc(Cl)cc1Cl [Triclosan] | 0.0658 | 0.081 | -0.0656 | 0.0445 | – | – | – | –
CC[C@H]1OC(=O)[C@H](C)C(=O)[C@H](C)[C@@H](O[C@@H]2O[C@H](C)C[C@H](N(C)C)[C@H]2O)[C@](C)(OC)C[C@@H](C)C(=O)[C@H](C)[C@H]2N(CCCCn3cnc(-c4cccnc4)c3)C(=O)O[C@]12C [Telithromycin] + Oc1cc(Cl)ccc1Oc1ccc(Cl)cc1Cl [Triclosan] | 0.017 | -0.0253 | 0.0266 | 0.0532 | – | – | – | –
Clc1ccc(COC(Cn2ccnc2)c2ccc(Cl)cc2Cl)c(Cl)c1 (stereo not given) [Miconazole] + CCCCCCCCCC(=O)N[C@@H]1[C@H]([C@@H]([C@H](O[C@H]1OC2=C3C=C4C=C2OC5=C(C=C(C=C5)[C@H]([C@H]6C(=O)N[C@@H](C7=C(C(=CC(=C7)O)OC8[C@H]([C@H]([C@@H]([C@H](O8)CO)O)O)O)C9=C(C=CC(=C9)[C@H](C(=O)N6)NC(=O)[C@@H]4NC(=O)[C@@H]1C2=CC(=CC(=C2)OC2=C(C=CC(=C2)[C@H](C(=O)N[C@H](CC2=CC(=C(O3)C=C2)Cl)C(=O)N1)N)O)O)O)C(=O)O)O[C@H]1[C@@H]([C@H]([C@@H]([C@H](O1)CO)O)O)NC(=O)C)Cl)CO)O)O [Teicoplanin] | – | – | – | – | 0.117 | -0.0409 | -0.0558 | 0.115
CC[C@H]1OC(=O)[C@H](C)C(=O)[C@H](C)[C@@H](O[C@@H]2O[C@H](C)C[C@H](N(C)C)[C@H]2O)[C@](C)(OC)C[C@@H](C)C(=O)[C@H](C)[C@H]2N(CCCCn3cnc(-c4cccnc4)c3)C(=O)O[C@]12C [Telithromycin] + CN[C@H](CC(C)C)C(=O)N[C@H]1C(=O)N[C@@H](CC(N)=O)C(=O)N[C@H]2C(=O)N[C@H]3C(=O)N[C@H](C(=O)N[C@H](C(=O)O)c4cc(O)cc(O)c4-c4cc3ccc4O)[C@H](O)c3ccc(c(Cl)c3)Oc3cc2cc(c3O[C@@H]2O[C@H](CO)[C@@H](O)[C@H](O)[C@H]2O[C@H]2C[C@](C)(N)[C@H](O)[C@H](C)O2)Oc2ccc(cc2Cl)[C@H]1O [Vancomycin] | 0.0487 | -0.0478 | 0.0259 | 0.0519 | – | – | – | –
